How the values were obtained:
Type in all cases: binding
[1] = test system: T1, KRas^G12D; assay: Intact MS photoaffinity labeling screen, KRas G12D (302 nm, LCMS-TOF); details: for experimental hit status KRAS-G12D: 0/1 flag; for MS labeling percentage, KRas: KRas G12D, 302 nm 10 min; for KRAS-G12D (experimental hit status): hit flag 1/0, sheet PhP, photoaffinity labeling screen
T1 construct: purchased GSK/GenScript
Experimental: (§1) Using a plate-based format with one fragment per well, each fragment was incubated with the target proteins for 15 min to allow for the formation of non-covalent interactions. […] Finally, the results were directly analyzed from the plate using intact protein mass spectrometry by observing the mass additions that correspond to successful labeling (Fig. 2c, for labeling % values see Supplementary data). The library was first characterized against three benchmark proteins like carbonic anhydrase (CA), lysozyme (Lyo), and myoglobin (Myo).
(§2) The PhP library was screened against BRD4-BD1 and KRas^G12D as follows. […] The probe plate was placed on ice. 15 μL of protein stock solution (1 μM BRD4-BD1 (GSK/GenScript) or KRas^G12D (GSK/GenScript) in PBS buffer) was dispensed into wells containing fragments. The plate was left on ice for 15 min for incubation, then irradiated at 302 nm for 10 min, and centrifuged (1000 rpm, 1 min) to remove any bubbles. […] The deconvoluted spectra were analyzed using R Studio software.

[2] = test system: myoglobin (Myo); assay: Intact protein MS photoaffinity labeling screen, myoglobin; details: intact protein MS after 10 min irradiation
Experimental: as §1

[3] = test system: T2, BRD4-BD1; assay: Intact MS photoaffinity labeling screen, BRD4-BD1 (302 nm, LCMS-TOF); details: for experimental hit status BRD4-BD1: 0/1 flag; for MS labeling percentage, BRD4: BRD4-BD1, 302 nm 10 min; for BRD4-BD1 (experimental hit status): hit flag 1/0, sheet PhP, photoaffinity labeling screen
T2 construct: screened the PhP library against the first bromodomain of BRD4 (BRD4-BD1); purchased GSK/GenScript
Experimental: as §1, §2

[4] = test system: T3, STAT5B-NTD; assay: Intact MS labeling screen, STAT5B-NTD conjugated with photocatalyst Ir-G2-PEG3-COOH (450 nm); details: 450 nm 10 min;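 further: 0.14 µL of 100 mM DMSO fragment stock added to the conjugate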
T3 construct: His-SUMO (N, cleaved yes); made in house; host or cells: E. coli BL21 RILP
Experimental: For the photocatalysis experiments, 1.4 µL photocatalyst (in 1.4 mM DMSO solution, 10 eq) was pre-incubated with 1.5 µL coupling reagent (0.75 µL, 5.6 mM EDC (20 eq)+0.75 µL 4.2 mM NHS and 1.5 µL 2.1 mM (15 eq) BOP for 30 min in dark. 30 µL STAT5B-NTD (in 7 µM concentration) was added and incubated further at room temperature overnight or at 37 °C for 1 h in dark. After addition of 0.14 µL PhP (in 100 mM DMSO) the solution was further incubated in dark for 1 h. Irradiation was carried out using 450 nm LED lamp (7.6Vx0A) for 10 min at 4 °C.
(§3) During the analysis, the column temperature was maintained at a constant 60 °C, and a sample volume of 3 µL was injected for each analysis. Data acquisition was conducted in positive ion mode within the m/z 100–2000 (mass-to-charge ratio) range. For the full protocol and spectra of the hits, see Supplementary Note 2.

[5] = test system: T3, STAT5B-NTD; assay: Intact MS photoaffinity labeling screen, STAT5B-NTD (365 nm, UHPLC-MS); details: for experimental hit status STAT5B-NTD: 0/1 flag; for MS labeling percentage, STAT5B: STAT5B-NTD, 365 nm 10 min, no photocatalyst; for STAT5B-NTD (experimental hit status): hit flag 1/0, sheet PhP, photoaffinity labeling screen;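 on MS labeling percentage, STAT5B: 0.17 µL of 100 mM DMSO fragment stock added to the protein sample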
Experimental: STAT5B protein in 7 µM concentration in pH 7.4 PBS buffer was pre-incubated with 0.17 µL PhP (in 100 mM DMSO solution) for 1 h at room temperature in dark. Irradiation was carried out at 4 °C for 10 min using 365 nm UV lamp.
as §3

[6] = test system: carbonic anhydrase II (CA); assay: Intact protein MS photoaffinity labeling screen, carbonic anhydrase; details: intact protein MS after 10 min irradiation
Experimental: as §1

[7] = test system: lysozyme (Lyo); assay: Intact protein MS photoaffinity labeling screen, lysozyme; details: intact protein MS after 10 min irradiation
Experimental: as §1

Row | SMILES | MS labeling percentage, CA [6] [%] | experimental hit status KRAS-G12D [1] | MS labeling percentage, KRas [1] [%] | MS labeling percentage, Myo [2] [%] | experimental hit status BRD4-BD1 [3] | MS labeling percentage, BRD4 [3] [%] | MS labeling percentage, STAT5B+photocat [4] [%] | experimental hit status STAT5B-NTD [5] | MS labeling percentage, STAT5B [5] [%] | MS labeling percentage, Lyo [7] [%] | KRAS-G12D (experimental hit status) [1] | BRD4-BD1 (experimental hit status) [3] | STAT5B-NTD (experimental hit status) [5]
1 | Cc1nn(C)cc1CNC(=O)CCC1(C)N=N1 [PhP021, Cc1nn(C)cc1CNC(=O)CCC2(C)N=N2] | 0.7 | 0 | 0.2 | 0.3 | 0 | 0.9 | 0.4 | 0 | 1 | 0 |  |  | 
2 | CC1(CCC(=O)NCCCCN2CCOCC2)N=N1 [PhP022, N1=NC1(C)CCC(=O)NCCCCN2CCOCC2] | 0.5 | 0 | 0.5 | 0.2 | 0 | 0.6 | 0.4 | 0 | 1 | 0 |  |  | 
3 | Cc1cccc2nc(CNC(=O)CCC3(C)N=N3)[nH]c12 [PhP023, c1ccc(C)c(c12)[nH]c(n2)CNC(=O)CCC3(C)N=N3] | 0.3 | 0 | 0.7 | 0.2 | 0 | 0.9 | 0 | 0 | 1 | 0 |  |  | 
4 | CC1(CCC(=O)NCc2cccc(C(=O)OC(C)(C)C)c2)N=N1 [PhP024, CC(C)(C)OC(=O)c1cccc(c1)CNC(=O)CCC2(C)N=N2] | 0.2 | 0 | 0.1 | 0.2 | 0 | 1.4 | 7.2 | 0 | 0 | 0 |  |  | 
5 | CC1(CCC(=O)NCc2ccccc2NS(C)(=O)=O)N=N1 [PhP025, CS(=O)(=O)Nc1ccccc1CNC(=O)CCC2(C)N=N2] | 0.2 | 0 | 0.1 | 0.1 | 0 | 0.2 | 1.2 | 0 | 0 | 0 |  |  | 
6 | Cc1ccc(C(NC(=O)CCC2(C)N=N2)c2ccccn2)cc1 (stereo not shown) [PhP026, n1ccccc1C(c(cc2)ccc2C)NC(=O)CCC3(C)N=N3] | 0.4 | 0 | 0.3 | 0.2 | 0 | 0.4 | 5 | 0 | 1 | 0.4 |  |  | 
7 | CC1(CCC(=O)NCc2ccccc2O)N=N1 [PhP028, N1=NC1(C)CCC(=O)NCc2ccccc2O] | 0 | 0 | 0.4 | 0.2 | 0 | 57 | 0.3 | 0 | 1 | 0 |  |  | 

Second part, led by results:

Row | MS labeling percentage, CA [6] [%] | SMILES | experimental hit status KRAS-G12D [1] | MS labeling percentage, KRas [1] [%] | MS labeling percentage, Myo [2] [%] | experimental hit status BRD4-BD1 [3] | MS labeling percentage, BRD4 [3] [%] | MS labeling percentage, STAT5B+photocat [4] [%] | experimental hit status STAT5B-NTD [5] | MS labeling percentage, STAT5B [5] [%] | MS labeling percentage, Lyo [7] [%] | KRAS-G12D (experimental hit status) [1] | BRD4-BD1 (experimental hit status) [3] | STAT5B-NTD (experimental hit status) [5]
8 | 0.4 | CC1(CCC(=O)NCCNC(=O)c2ccc(Cl)cc2)N=N1 [PhP027, N1=NC1(C)CCC(=O)NCCNC(=O)c2ccc(Cl)cc2] | 0 | 0.1 | 0.2 | 0 | 0.5 | 5.2 | 0 | 1 | 0 |  |  | 
9 | 0 | CC1(CCC(=O)NC2CCCN(c3ncc[nH]c3=O)C2)N=N1 (stereo not shown) [PhP029, N1=NC1(C)CCC(=O)NC2CCCN(C2)c3ncc[nH]c3=O] | 0 | 0 | 0.1 | 0 | 0.2 | 0.3 | 0 | 0 | 0 |  |  | 
10 | 0.7 | Cc1ccc2[nH]c(CNC(=O)CCC3(C)N=N3)nc2c1 [PhP030, c1cc(C)cc(c12)nc([nH]2)CNC(=O)CCC3(C)N=N3] | 0 | 1.4 | 0.4 | 0 | 1.2 | 0.7 | 0 | 0 | 0 |  |  | 
11 | 0.6 | CC1(CCC(=O)NCCc2nc3ccccc3[nH]2)N=N1 [PhP031, N1=NC1(C)CCC(=O)NCCc(n2)[nH]c(c23)cccc3] | 0 | 0.4 | 0.3 | 0 | 0.8 | 0.5 | 0 | 1 | 0 |  |  | 
12 | 0.2 | CCC(NC(=O)CCC1(C)N=N1)c1ccccc1OC (stereo not shown) [PhP032, N1=NC1(C)CCC(=O)NC(CC)c2ccccc2OC] | 0 | 0 | 0.3 | 0 | 0.3 | 1.9 | 0 | 2.9 | 0 |  |  | 
13 | 0.5 | CC1(CCC(=O)NCc2ccc(-n3ccnc3)cc2)N=N1 [PhP033, N1=NC1(C)CCC(=O)NCc2ccc(cc2)-n3ccnc3] | 0 | 0.5 | 0.3 | 0 | 1.1 | 0.3 | 0 | 1 | 0 |  |  | 
14 | 0.2 | COC(=O)[C@@H](Cc1c[nH]c2ccccc12)NC(=O)CCC1(C)N=N1 [PhP036, N1=NC1(C)CCC(=O)N[C@@H](C(=O)OC)Cc(c[nH]2)c(c23)cccc3] | 0 | 1 | 0 | 0 | 0.6 | 5.4 | 0 | 2 | 0.4 |  |  | 
15 | 0.5 | COc1ccc(CNC(=O)CCC2(C)N=N2)cn1 [PhP039, COc1ccc(cn1)CNC(=O)CCC2(C)N=N2] |  | 0.2 | 0.3 |  | 0.5 | 1.3 |  | 1 | 0 | 0 | 0 | 0
16 | 0.3 | Cc1nc(NC(=O)CCC2(C)N=N2)c2cnn(-c3ccc(F)cc3)c2n1 [PhP041, c1cc(F)ccc1-n(nc2)c(c23)nc(C)nc3NC(=O)CCC4(C)N=N4] |  | 0.3 | 0 |  | 0.2 | 10.6 |  | 0 | 0 | 0 | 0 | 0
